In patent US4758555A, “Method for treating convulsions and epilepsy with organic copper compounds” (priority 1986, dated 1988):

Legend:
Type in all cases: in vivo, male Carworth Farms #1 mice or Sprague-Dawley rats
[1] = Maximal Electroshock Seizure Test; conditions: Table X; for ED50 for inhibition of seizures, MES (Phase II): at time of peak activity
[2] = Subcutaneous Pentylenetetrazol (Metrazol) Seizure Threshold Test; conditions: Table X; for ED50 for inhibition of seizures, Metrazol (Phase II): at time of peak activity
[3] = Anticonvulsant activity, both or unspecified seizure models; conditions: for Time of peak activity (Phase II): Table X, IP, challenge time; for Anticonvulsant activity (in words): running text

Compound	ED50 for inhibition of seizures, MES (Phase II) ([1]; IP)	Lowest effective dose, MES (Phase I) ([1]; IP, challenge time 30 min)	Lowest effective dose, MES (Phase I) ([1]; IP, challenge time 4 hrs)	Lowest effective dose, Metrazol (Phase I) ([2]; IP, challenge time 30 min)	Lowest effective dose, Metrazol (Phase I) ([2]; IP, challenge time 4 hrs)	Onset and duration of anticonvulsant action (in words) [3]	Time of peak effect ([3]; Phase II)	Time of peak activity (Phase II) [3]	Anticonvulsant activity (in words) [3]	Lowest effective dose, MES (Phase I) ([1]; SC, challenge time 30 min)	Lowest effective dose, MES (Phase I) ([1]; SC, challenge time 4 hrs)	Lowest effective dose, Metrazol (Phase I) ([2]; SC, challenge time 30 min)	Lowest effective dose, Metrazol (Phase I) ([2]; SC, challenge time 4 hrs)	ED50 for inhibition of seizures, Metrazol (Phase II) ([2]; IP)
O.O.O.O=C1[N-]C(=O)C(c2ccccc2)(c2ccccc2)N1.O=C1[N-]C(=O)C(c2ccccc2)(c2ccccc2)N1.[Cu+2] [Cu(II)(Dilantin)2 (H2 O)3]	13 mg/kg	30 milligrams per kilogram of bod	30 milligrams per kilogram of bod	100 milligrams per kilogram of bod	100 milligrams per kilogram of bod	rapid onset and prolonged duration in inhibiting only Maximal Electroshock-induced seizures	4 h	4 h	did not potentiate but did block both types of seizures	–	–	–	–	–
O.O=C1Nc2ccc(Cl)cc2C(c2ccccc2Cl)=NC1O.O=C1Nc2ccc(Cl)cc2C(c2ccccc2Cl)=NC1O.[Cl-].[Cl-].[Cu+2] (centres unmarked) [Cu(II)(Lorazepam)2 (Cl)2 H2 O]	–	20 milligrams per kilogram of bod	30 milligrams per kilogram of bod	I	I	rapid onset of action and prolonged duration following intraperitoneal and subcutaneous administration	–	–	appears to be quite active	20 milligrams per kilogram of bod	100 milligrams per kilogram of bod	I	I	–
CCC1(c2ccccc2)C(=O)[N-]C(=O)NC1=O.CCC1(c2ccccc2)C(=O)[N-]C(=O)NC1=O.O.O.O.[Cu+2] [Cu(II)(Phenobarbital)2 (H2 O)3]	16 mg/kg	30 milligrams per kilogram of bod	30 milligrams per kilogram of bod	5 milligrams per kilogram of bod	5 milligrams per kilogram of bod	–	–	2 h	–	30 milligrams per kilogram of bod	30 milligrams per kilogram of bod	30 milligrams per kilogram of bod	30 milligrams per kilogram of bod	10 mg/kg
CCC1(c2ccccc2)C(=O)[N-]C(=O)NC1=O.CCC1(c2ccccc2)C(=O)[N-]C(=O)NC1=O.[Cu+2].c1ccncc1.c1ccncc1 [Cu(II)(Phenobarbital)2 (pyridine)2]	17 mg/kg	100 milligrams per kilogram of bod	100 milligrams per kilogram of bod	30 milligrams per kilogram of bod	30 milligrams per kilogram of bod	–	–	2 h	–	I	30 milligrams per kilogram of bod	I	30 milligrams per kilogram of bod	9 mg/kg
